In patent US11691960B2, “2-[thiophen-2-yl)formamido]-N-(phenyl)-2-methylpropanamide derivatives and the use thereof as medicament” (Boehringer Ingelheim International GmbH, priority 2020, dated 2023):
Read-outs that look alike come from different tables or passages of the source.

How the values were obtained:
[1] = target: human Factor Xa (Homo sapiens (Human), UniProt P00742); assay: Assay C: human Factor Xa chromogenic substrate assay; type: biochemical; conditions: for IC50: human Factor Xa 0.86 nM, chromogenic substrate S2765; for Selectivity Assay C/Assay A: ratio IC50 Factor Xa / IC50 IDO1
Procedure: Assay C. In Vitro Testing of Human Factor Xa Potency:
Measurement of active human Factor Xa using a specific chromogenic substrate which is labeled with a p-nitro-anilino group (pNA). The cleavage in between the binding of the peptide substrate and the pNA-group is followed by a color change, which can be detected at 405 nm. The amount of cleaved substrate is directly proportional to the amount of active Xa.
[…] (100 U) human Factor Xa (Enzyme Research Laboratories; HFXa1011) were solved in 0.444 ml H2O (Millipore), which accords to a stock solution of 19.28 μM or 225 U/ml. Further dilutions were made in the assay buffer (Tris 100 mM, NaCL 150 mM, adjusted to a pH of 7.8 with HCL, containing 0.1% BSA and 0.05% Tween20). 25 mg (1 vial) of the chromogenic substrate S2765 (Chromogenix; S2765) was solved in 3.5 ml H2O (Millipore) to achieve a stock solution of 10 mM.
Compounds were solved and diluted in DMSO where the final dilution in the assay is 1:10 resulting in a final concentration of 1% DMSO.
• the prefinal dilution step was 1:10 in the assay buffer containing 11% DMSO resulting in 10% DMSO • final dilution in the assay is 1:10 resulting in a final concentration of 1% DMSO
Compounds were tested at final concentrations of 10 μM to 0.003 nM or lower. 5 μl human factor Xa (final concentration 0.86 nM), 2 μl compound dilution or assay buffer (containing 10% DMSO) and 8 μl assay buffer were pipetted in triplicates into a 384-well plate and incubated in the Thermomix at 24° C. for 10 minutes.
After addition of 5 μl chromogenic substrate (final concentration 0.5 mM) the enzyme-substrate reaction started and the kinetic measurement with the SpectraMax Monochromator was started within 1-2 minutes. • Parameter of measurement: (Spectra ax, Monochromator) • Absorbance; 1.LM 405 nM • Kinetic: 16 min each 2nd minute (9 times) • Negative Control (NC) 5 μl human factor Xa+10 μl assay buffer+5 μl Substrate • Positive Control (PC): 5 μl human factor Xa+2 μl Nafamostat (commercially available, final concentration: 1 μM)+8 μl assay buffer+5 μl Substrate • Blank (optional): 15 μl assay buffer+5 μl Substrate
Calculation of IC50, KI and the % effect at the highest concentration (Ratio)
For the calculation the average of the Vmax-values in between 120 sec to 720 sec were taken.
A x/y-Plot was created: x=log (M, Compound); y=vmax (drfu/min)
The data were analyzed with the curve fitting model: log (inhibitor) vs. response—Variable slope (four parameters)
The results of this fit were Top, Bottom, Log (IC50, M), Hillslope and IC50 (M)

[2] = target: human androgen receptor (Homo sapiens (Human), UniProt P10275); assay: Assay B: human androgen receptor luciferase reporter assay (Indigo Biosciences); type: cell-based
Description: Assay B. In Vitro Testing of Androgen Receptor Potency:
The human androgen receptor (AR) assay was run using Product #IB03001 from Indigo Biosciences. The cell line provided in this kit carries a reporter gene, induced upon AR stimulation. This reporter gene is cDNA encoding for beetle luciferase, a 62 kD protein originating from the North American firefly (Photinus pyralis). This luciferase catalyzes the mono-oxidation of D-luciferin yielding oxyluciferin, adenosine monophosphate, pyrophosphate, CO2, and photon emission. The luminescence intensity of the reaction is quantified using a luminometer.
To run the assay, the cells are thawed by adding pre-warmed cell recovery medium to each tube, then placed in a 37° C. water bath. 30000 viable cells in 200 μl are plated (collagen coated plates) and incubated at 37° C., ≥85% humidity, 5% CO2 for 24 hours. Media is replaced with compound screening medium. Cells are then challenged with 125 pM (EC80) 6a-Fl Testosterone and compounds are applied in half logarithmic dilutions from 10 μM to 10 nM. Assay plates are then incubated at 37° C., ≥85% humidity, 5% CO2 for 22-24 hours. Media is replaced with luciferase detection reagent and allowed 5 minutes to equilibrate prior to luminescence quantification.
Data Analysis consisted of calculating percentage of control between 100% (Negative control:6a-Fl Testosterone) and 0 (positive control: no 6a-FL Testosterone). Fitting of normalized values was made 4-Parameter sigmoidal binding curve (Log[conc]) vs. signal.

[3] = Assay F: tissue distribution in rat after oral application; type: in vivo; conditions: for in vivo efflux (in words): after oral application; for in vivo efflux (Assay F): oral 10 μmol/kg, muscle/brain tissue distribution
Description: In order to estimate the amount of administered drug to enter the brain, the brain to plasma ratio is used as surrogate parameter. As efflux transporters (e.g. P-gp) are located at the blood-brain barrier, compounds acting as substrates will be actively transported out of the brain. As these efflux transporters are not expressed in muscle tissue, the relative distribution ratio of compound between muscle and brain tissue can be used as indication for an efflux in vivo in rats or mice. In case there is no in vivo efflux detectable (in rats/mice) and in case there is no efflux in vitro (MDCK-MDR1 (P-gp)), a brain exposure in patients can be expected [see Table 7 for comparison of in vitro efflux data (MDCK-MDR1 assay) and in vivo efflux data (tissue distribution in rat/mouse after oral application)].
Assay F. Determination of Tissue Distribution in Rat/Mouse After Oral Application of Compounds
Male Han Wistar rats or C57BL/6NRj mice were orally dosed with 10 μmol/kg of compound to be investigated, suspended in 0.5% Natrosol/0.015% Tween80. Blood was collected in K3EDTA containing vials from the sublingual vein in short time Isoflurane anesthesia in rat or from the saphenous vein in conscious mice at […], 0.25, 0.5, 1, 2, 3, 4, 8 and 24 hours post administration. Subsequently, plasma was prepared by centrifugation for 5 min at 5000 rpm and stored at −20° C.
Tissues and CSF were sampled in anaesthetized animals. CSF was collected from the cisterna magna. Following exsanguination a femoral muscle sample was collected. Cranium and the dura matter were removed and the complete brain was collected. Before transfer of the muscle and brain sample to pre-weight homogenization devices (Precellys®) the tissues were rinsed with saline and blotted dry.
For homogenization, four parts (v/w) homogenization buffer (37.5% acetonitrile, 37.5% methanol, 25% water) were added. Tissues were homogenized with a Precellys® Evolution homogenizer. Five μL of the homogenate were added to 70 μL of a 1 to 1 (v/v) mixture of acetonitrile and methanol and frozen for at least 10 min at −18° C.
For final sample preparation, the sample was centrifuged at 4000 rpm for 1 min, and an aliquot of the resulting supernatant (30 μL) was mixed with 170 μL formic acid prior to injection to LC-MS. Calibration curves were prepared accordingly in rat and mouse plasma, respectively. All animal care and experimental procedures at Boehringer Ingelheim were conducted in compliance with the German and European Animal Welfare Act (EU Directive 2010/63/EU) and were approved by the Regierungspräsidium Tübingen as the responsible local German authority (reference number 35/9185.81-8/14-009-G).

[4] = target: MDR1 (P-gp) (Homo sapiens (Human), UniProt P08183); assay: Assay E: MDCK assay MDR-1 (P-gp); type: in vitro ADME; conditions: for efflux ratio at 2 h, 10 μM: human, final test concentration 10 μM
Procedure: The MDCK assays provide information on the potential of a compound to pass the blood brain barrier. Permeability measurements across polarized, confluent MDCK-MDR1 cell monolayers grown on permeable filter supports are used as an in vitro absorption model: apparent permeability coefficients (PE) of the compounds across the MDCK-MDR1 cell monolayers are measured (pH 7.4, 37° C.) in apical-to-basal (AB) and basal-to-apical (BA) transport direction. The AB permeability (PEAB) represents drug absorption from the blood into the brain and the BA permeability (PEBA) drug efflux from the brain back into the blood via both, passive permeability as well as active transport mechanisms mediated by efflux and uptake transporters that are expressed on the MDCK-MDR1 cells, predominantly by the overexpressed human MDR1. Identical or similar permeabilities in both transport directions indicate passive permeation, vectorial permeability points to additional active transport mechanisms. Higher PEBA than PEAB (PEBA/PEAB >3) indicates the involvement of active efflux mediated by MDR1, which might compromise the goal to achieve sufficient brain exposure.
Assay E. MDCK assay MDR-1 (P-gp)
Apparent permeability coefficients (Papp) of the compounds across MDCK-MDR1 monolayers (MDCKII cells transfected with human MDR1 gene) are measured in apical-to-basal (AB) and basal-to-apical (BA) direction.
MDCK-MDR1 cells (6×10^5 cells/cm^2) are seeded onto filter inserts (Corning, Transwell, polycarbonate, 0.4 μm pore size) and cultured for 9 to 10 days. Compounds dissolved in DMSO stock solution (1-20 mM) are diluted with HTP-4 buffer (128.13 mM NaCl, 5.36 mM KCl, 1 mM MgSO4, 1.8 mM CaCl2, 4.17 mM NaHCO3, 1.19 mM Na2HPO4, 0.41 mM NaH2PO4, 15 mM HEPES, 20 mM glucose, pH 7.4) supplemented with 0.25% BSA to prepare the transport solutions, resulting in a final test concentration of 1 μM or 10 μM and a final DMSO content of 0.5%. The transport solution is applied to the apical or basolateral donor side for measuring A-B or B-A permeability, respectively. The receiver side contains HTP-4 buffer supplemented with 0.25% BSA. Samples are collected at the start and end of experiment from the donor and at various time intervals for up to 2 hours from the receiver side for concentration measurement by HPLC-MS/MS. Sampled receiver volumes are replaced with fresh receiver solution.
All data reported for Assay E were measured with a final test concentration of 10 μM.

[5] = MDCK-MDR1, pH 7.4, Table 7, read-out: MDCK-MDR1 efflux ratio (Assay E)
[6] = pH 7.4, MDCK-MDR1 monolayers, mean +− standard deviation, read-out: Efflux ratio Assay E

human Factor Xa, sequence (P00742 235-488): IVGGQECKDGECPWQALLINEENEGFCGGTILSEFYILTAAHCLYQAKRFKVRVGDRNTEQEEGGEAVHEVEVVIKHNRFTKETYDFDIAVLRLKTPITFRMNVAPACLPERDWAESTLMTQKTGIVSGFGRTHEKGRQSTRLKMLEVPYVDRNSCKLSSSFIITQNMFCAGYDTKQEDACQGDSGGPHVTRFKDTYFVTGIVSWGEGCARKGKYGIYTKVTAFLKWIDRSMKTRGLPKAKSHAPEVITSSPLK
human Factor Xa, sequence (P00742 41-179 partner): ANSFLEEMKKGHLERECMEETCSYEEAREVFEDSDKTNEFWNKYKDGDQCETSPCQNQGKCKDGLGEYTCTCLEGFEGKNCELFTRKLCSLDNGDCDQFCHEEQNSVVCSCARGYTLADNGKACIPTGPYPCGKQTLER
MDR1 (P-gp), sequence (P08183 whole entry): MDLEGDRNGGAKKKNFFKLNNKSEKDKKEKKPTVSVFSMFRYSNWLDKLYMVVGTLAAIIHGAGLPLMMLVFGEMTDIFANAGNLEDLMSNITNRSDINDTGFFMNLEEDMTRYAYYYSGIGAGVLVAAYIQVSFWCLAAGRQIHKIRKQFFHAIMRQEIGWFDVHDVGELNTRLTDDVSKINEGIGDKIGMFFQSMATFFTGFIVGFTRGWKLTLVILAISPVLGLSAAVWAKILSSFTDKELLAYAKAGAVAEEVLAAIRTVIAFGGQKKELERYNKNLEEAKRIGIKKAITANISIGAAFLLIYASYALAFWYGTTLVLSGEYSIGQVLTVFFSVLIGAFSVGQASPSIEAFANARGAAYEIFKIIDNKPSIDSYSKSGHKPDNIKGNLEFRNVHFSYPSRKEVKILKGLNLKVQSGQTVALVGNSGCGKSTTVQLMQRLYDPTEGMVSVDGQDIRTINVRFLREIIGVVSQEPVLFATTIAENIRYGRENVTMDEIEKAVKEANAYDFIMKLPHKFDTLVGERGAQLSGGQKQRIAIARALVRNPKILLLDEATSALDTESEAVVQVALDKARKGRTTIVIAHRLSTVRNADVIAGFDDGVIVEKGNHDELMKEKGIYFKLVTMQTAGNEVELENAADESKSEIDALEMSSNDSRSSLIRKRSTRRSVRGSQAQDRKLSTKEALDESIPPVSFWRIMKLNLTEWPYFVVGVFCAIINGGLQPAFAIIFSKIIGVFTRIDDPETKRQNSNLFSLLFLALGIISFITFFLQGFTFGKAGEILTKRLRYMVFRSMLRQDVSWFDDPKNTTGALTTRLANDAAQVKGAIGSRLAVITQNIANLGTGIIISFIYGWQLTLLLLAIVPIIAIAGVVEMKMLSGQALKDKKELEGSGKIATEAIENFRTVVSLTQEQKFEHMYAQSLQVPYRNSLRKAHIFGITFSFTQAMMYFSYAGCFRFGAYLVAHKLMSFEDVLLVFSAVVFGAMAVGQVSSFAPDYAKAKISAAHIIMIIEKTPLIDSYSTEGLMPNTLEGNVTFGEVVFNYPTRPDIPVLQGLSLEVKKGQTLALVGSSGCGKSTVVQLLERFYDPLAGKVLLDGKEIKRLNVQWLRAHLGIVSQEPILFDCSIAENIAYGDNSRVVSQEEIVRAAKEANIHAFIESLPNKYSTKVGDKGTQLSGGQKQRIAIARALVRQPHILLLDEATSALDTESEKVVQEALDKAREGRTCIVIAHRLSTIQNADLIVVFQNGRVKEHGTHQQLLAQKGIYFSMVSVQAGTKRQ
human androgen receptor, sequence (P10275 whole entry): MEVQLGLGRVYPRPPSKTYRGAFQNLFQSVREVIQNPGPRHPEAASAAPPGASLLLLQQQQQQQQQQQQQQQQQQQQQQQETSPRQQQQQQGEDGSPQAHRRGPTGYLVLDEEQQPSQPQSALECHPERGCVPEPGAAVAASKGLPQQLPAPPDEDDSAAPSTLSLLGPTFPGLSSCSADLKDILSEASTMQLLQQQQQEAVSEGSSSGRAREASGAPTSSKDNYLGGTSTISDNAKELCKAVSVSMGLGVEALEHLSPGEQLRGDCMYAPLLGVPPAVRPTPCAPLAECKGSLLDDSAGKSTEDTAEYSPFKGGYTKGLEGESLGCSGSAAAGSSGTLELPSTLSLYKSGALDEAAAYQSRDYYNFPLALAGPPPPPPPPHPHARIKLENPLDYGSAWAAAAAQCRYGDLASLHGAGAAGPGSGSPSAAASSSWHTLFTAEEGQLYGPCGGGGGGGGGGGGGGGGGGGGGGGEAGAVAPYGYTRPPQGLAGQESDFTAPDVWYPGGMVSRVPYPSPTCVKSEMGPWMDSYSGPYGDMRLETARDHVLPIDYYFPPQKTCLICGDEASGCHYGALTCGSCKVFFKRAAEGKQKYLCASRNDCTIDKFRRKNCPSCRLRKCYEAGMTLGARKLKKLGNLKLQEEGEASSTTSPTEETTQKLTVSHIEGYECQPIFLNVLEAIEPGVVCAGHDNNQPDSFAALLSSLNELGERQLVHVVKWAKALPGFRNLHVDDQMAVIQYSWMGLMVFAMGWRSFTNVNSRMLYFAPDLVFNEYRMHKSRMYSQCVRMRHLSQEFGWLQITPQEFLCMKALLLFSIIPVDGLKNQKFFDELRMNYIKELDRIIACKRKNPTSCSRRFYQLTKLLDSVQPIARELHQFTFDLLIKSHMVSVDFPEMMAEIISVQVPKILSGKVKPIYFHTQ

| IC50 [1] [nM] | Selectivity Assay C/Assay A [1] | IC50 ([2]; challenge with 125 pM (EC80) 6a-Fl Testosterone, mean +− standard deviation) [µM] | Selectivity Assay B/Assay A ([2]; ratio IC50 androgen receptor / IC50 IDO1) | in vivo efflux (in words) [3] | in vivo efflux (Assay F) [3] | efflux ratio at 2 h, 10 μM [4, 5] | in vitro efflux, MDCK-MDR1 (in words) [4] | inhibition of the human Factor Xa enzyme (in words) [1] | efflux ratio at 2 h, 10 μM [4, 6] | SMILES |
| --- | --- | --- | --- | --- | --- | --- | --- | --- | --- | --- |
| > 10000 | >57 | > 10 | >58 | – | – | – | – | – | – | CC(C)(NC(=O)c1ccc(Cl)s1)C(=O)Nc1ccc(Cl)cc1 [Example 5, 2-[(5-chlorothiophen-2-yl)formamido]-N-(4-chlorophenyl)-2-methylpropanamide] |
| > 10000 | >13 | – | – | substantial in vivo efflux | 6.2 (rat) | 1.8 | – | – | – | CC(C)(NC(=O)c1ccc(Cl)s1)C(=O)Nc1ncc2c(n1)CCN(Cc1ccccc1)CC2 [WO2007/003536 Ex. 159] |
| 26 | 0.11 | – | – | – | – | – | high efflux | inhibit the human Factor Xa enzyme | – | CC(C)(NC(=O)c1ccc(Br)s1)C(=O)Nc1ccc(N2CCOCC2=O)c(Cl)c1 [WO2005/111029 Ex. 28] |
| 48 | 0.08 | – | – | – | – | – | high efflux ratio | inhibits the human Factor Xa enzyme | 32 | C#Cc1ccc(C(=O)NC(C)(C(=O)Nc2ccc(N3CCOCC3=O)c(C)c2)C(F)(F)F)s1 (stereo not shown) [5-ethynyl-N-{1-trifluoromethyl-1-[3-methyl-4-(3-oxomorpholin-4-yl)phenylcarbamoyl]ethyl}thiophene-2-carboxamide] |
| 8 | 0.03 | – | – | – | – | – | high efflux | inhibits the human Factor Xa enzyme | 5.7 | Cc1cc(NC(=O)C(C)(C)NC(=O)c2ccc(Cl)s2)ccc1C(=O)N1CCCC1 [WO2005/111014 Ex. 4] |
| > 10000 | >175 | – | – | substantial in vivo efflux | 3.3 (rat) | 1 | – | – | – | CC(C)(NC(=O)c1ccc(Cl)s1)C(=O)Nc1ccc2c(c1)CCN(C(=O)C(F)(F)F)CC2 [WO2007/003536 Ex. 4] |
| 40 | 0.01 | – | – | – | – | – | high efflux | inhibit the human Factor Xa enzyme | – | Cc1cc(NC(=O)C(C)(C)NC(=O)c2ccc(Cl)s2)ccc1N1CCOCC1=O [WO2005/111029 Ex. 8] |
| > 10000 | >164 | – | – | substantial in vivo efflux | 12.6 (rat) | 7.6 | – | – | – | CC(=O)N1CCc2ccc(NC(=O)C(C)(C)NC(=O)c3ccc(Cl)s3)cc2CC1 [WO2007/003536 Ex. 6] |
